Test results from paper PMC4186856, “Structural Basis for Resistance to Diverse Classes of NAMPT Inhibitors” (PLoS ONE, 2014).

Assays:
NCI-H520 cell line = test: Cellular IC50 in parental NCI-H520 cell line; type: cell-based; conditions: Homo sapiens, read-out: Parental GNE-618 IC50, NAPRT1 positive
[1] = system: NCI-H460 S165Y tumor xenografts; test: NCI-H460 S165Y mutant xenograft efficacy; conditions: oral QD, also at higher doses
[2] = system: 293T cells expressing NAMPT S165F; test: Response of 293T cells expressing NAMPT S165F; type: cell-based; conditions: NAMPT S165F expressed in 293T cells
Mia-Paca2 cell line = test: Cellular IC50 in parental Mia-Paca2 cell line; type: cell-based; conditions: Homo sapiens, MIA PaCa-2, read-out: Parental GNE-618 IC50, NAPRT1 negative
[3] = system: GNE-618 resistant cell lines harboring mutations other than D93del only or S165Y; test: Cellular IC50 shift, resistant cell lines harboring the other mutations; type: cell-based; conditions: cell lines harboring the other mutations (not D93del only or S165Y)
[4] = Tolerability in xenograft-bearing mice; type: in vivo; conditions: doses tested in NCI-H460 parental and S165Y mutant models, oral QD 7 days
[5] = system: 293T cells expressing NAMPT S165Y; test: Response of 293T cells expressing NAMPT S165Y; type: cell-based; conditions: NAMPT S165Y expressed in 293T cells
[6] = system: cell lines carrying S165Y (NCI-H460); test: Cellular IC50 shift, resistant cell line carrying S165Y; type: cell-based
[7] = system: NCI-H460 tumor xenografts; test: NCI-H460 parental xenograft efficacy; type: in vivo, mice; conditions: 100 mg/kg, oral, QD for 7 days, p = 0.007 vs. vehicle
RD cell line = test: Cellular IC50 in parental RD cell line; type: cell-based; conditions: Homo sapiens, read-out: Parental GNE-618 IC50, NAPRT1 negative
NCI-H460 cell line = test: Cellular IC50 in parental NCI-H460 cell line; type: cell-based; conditions: Homo sapiens, read-out: Parental GNE-618 IC50, NAPRT1 negative
[8] = system: GNE-618 resistant cell lines; test: Total cellular NAD in GNE-618 resistant cell lines; type: cell-based; conditions: after GNE-618 at 100-fold the parental line IC50; all resistant lines except those harboring only D93del or S165Y
[9] = system: RD cell line with the S165F mutation; conditions: RD parent and S165F resistant line, ± 10 µM nicotinic acid
[10] = system: RD cell line harboring only the D93 deletion; test: Cellular IC50 shift, RD resistant line (earlier passage) with D93 deletion only; type: cell-based; conditions: cell line carrying D93del
NAMPT G217V = target: T1, NAMPT G217V (Homo sapiens, UniProt P43490, G217V); test: NAMPT enzymatic inhibition, G217V mutant protein; conditions: purified G217V NAMPT 30 nM; 1 µM NAM, 100 µM PRPP, 2.5 mM ATP; read-out: Biochemical IC50, G217V
T1 construct: An expression construct for full length human (XP_540386) NAMPT was constructed using pET21B; His6 (C); made in house; host or cells: E. coli Rosetta (DE3)

NAMPT S165F = target: T2, NAMPT S165F (Homo sapiens, UniProt P43490, S165F); test: NAMPT enzymatic inhibition, S165F mutant protein; conditions: purified S165F NAMPT 30 nM; 1 µM NAM, 100 µM PRPP, 2.5 mM ATP; read-out: Biochemical IC50, S165F
T2 construct: An expression construct for full length human (XP_540386) NAMPT was constructed using pET21B; His6 (C); made in house; host or cells: E. coli Rosetta (DE3)

NAMPT G217R = target: T3, NAMPT G217R (Homo sapiens, UniProt P43490, G217R); test: NAMPT enzymatic inhibition, G217R mutant protein; conditions: purified G217R NAMPT 30 nM; 1 µM NAM, 100 µM PRPP, 2.5 mM ATP; read-out: Biochemical IC50, G217R
T3 construct: An expression construct for full length human (XP_540386) NAMPT was constructed using pET21B; His6 (C); made in house; host or cells: E. coli Rosetta (DE3)

WT NAMPT = target: T4, WT NAMPT (Homo sapiens, UniProt P43490); test: NAMPT enzymatic inhibition, wild-type protein (RapidFire/MS detection of NMN); conditions: purified wild-type NAMPT 30 nM; 1 µM NAM, 100 µM PRPP, 2.5 mM ATP; read-out: Biochemical IC50, WT
T4 construct: An expression construct for full length human (XP_540386) NAMPT was constructed using pET21B; His6 (C); made in house; host or cells: E. coli Rosetta (DE3)

NAMPT G217A = target: T5, NAMPT G217A (Homo sapiens, UniProt P43490, G217A); test: NAMPT enzymatic inhibition, G217A mutant protein; conditions: purified G217A NAMPT 30 nM; 1 µM NAM, 100 µM PRPP, 2.5 mM ATP; read-out: Biochemical IC50, G217A
T5 construct: An expression construct for full length human (XP_540386) NAMPT was constructed using pET21B; His6 (C); made in house; host or cells: E. coli Rosetta (DE3)

NAMPT S165Y = target: T6, NAMPT S165Y (Homo sapiens, UniProt P43490, S165Y); test: NAMPT enzymatic inhibition, S165Y mutant protein; conditions: purified S165Y NAMPT 50 nM; 1 µM NAM, 100 µM PRPP, 2.5 mM ATP; read-out: Biochemical IC50, S165Y
T6 construct: An expression construct for full length human (XP_540386) NAMPT was constructed using pET21B; His6 (C); made in house; host or cells: E. coli Rosetta (DE3)

NAMPT H191R = target: T7, NAMPT H191R (Homo sapiens, UniProt P43490, H191R); test: NAMPT enzymatic inhibition, H191R mutant protein; conditions: purified H191R NAMPT 30 nM; 1 µM NAM, 100 µM PRPP, 2.5 mM ATP; read-out: Biochemical IC50, H191R
T7 construct: An expression construct for full length human (XP_540386) NAMPT was constructed using pET21B; His6 (C); made in house; host or cells: E. coli Rosetta (DE3)
T7 sequence (P43490 whole entry H191R): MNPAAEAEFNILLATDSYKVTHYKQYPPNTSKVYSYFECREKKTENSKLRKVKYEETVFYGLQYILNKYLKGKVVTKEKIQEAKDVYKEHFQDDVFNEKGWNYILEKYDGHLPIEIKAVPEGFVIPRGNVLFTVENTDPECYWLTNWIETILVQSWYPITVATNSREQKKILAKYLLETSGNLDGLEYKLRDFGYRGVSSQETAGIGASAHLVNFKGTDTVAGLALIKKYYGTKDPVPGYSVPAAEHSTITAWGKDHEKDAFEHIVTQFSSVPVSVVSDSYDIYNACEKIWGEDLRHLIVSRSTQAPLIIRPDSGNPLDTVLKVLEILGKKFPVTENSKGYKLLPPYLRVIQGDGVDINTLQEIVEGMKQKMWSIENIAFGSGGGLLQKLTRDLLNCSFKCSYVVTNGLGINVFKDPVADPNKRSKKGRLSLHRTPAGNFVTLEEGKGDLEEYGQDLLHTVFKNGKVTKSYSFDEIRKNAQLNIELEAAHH

T2 sequence (P43490 whole entry S165F): as the sequence (P43490 whole entry H191R) above, with S165F, R191H counted along it
T5 sequence (P43490 whole entry G217A): as the sequence (P43490 whole entry H191R) above, with R191H, G217A counted along it
T1 sequence (P43490 whole entry G217V): as the sequence (P43490 whole entry H191R) above, with R191H, G217V counted along it
T4 sequence (P43490 whole entry): as the sequence (P43490 whole entry H191R) above, with R191H counted along it
T3 sequence (P43490 whole entry G217R): as the sequence (P43490 whole entry H191R) above, with R191H, G217R counted along it
T6 sequence (P43490 whole entry S165Y): as the sequence (P43490 whole entry H191R) above, with S165Y, R191H counted along it

| Structure (SMILES) | Sensitivity compared to wild-type NAMPT expression [2] | Sensitivity compared to wild-type NAMPT expression [5] | IC50 (NAMPT G217V) [nM] | IC50 (NAMPT S165F) [nM] | IC50 (NAMPT G217R) [nM] | IC50 (WT NAMPT) [nM] | IC50 (NAMPT G217A) [nM] | IC50 (NAMPT S165Y) [nM] | IC50 (NAMPT H191R) [nM] | further results |
| --- | --- | --- | --- | --- | --- | --- | --- | --- | --- | --- |
| O=C(NCc1ccc(S(=O)(=O)c2cccc(C(F)(F)F)c2)cc1)c1cnc2[nH]ncc2c1 [compound 1] | diminished sensitivity | diminished sensitivity |  |  |  |  |  |  |  | IC50 (NCI-H520 cell line): 9 ± 0.4 nM; Response of tumor xenografts to treatment [1]: completely resistant; IC50 (Mia-Paca2 cell line): 34 ± 2 nM; Increase in IC50 vs parental [3]: ≥ 100 fold; Tolerability (weight loss, morbidity, mortality) [4]: well tolerated; Shift in IC50 vs parental [6]: less than 100 fold; Tumor growth inhibition [7]: 54%; IC50 (RD cell line): 2 ± 0.2 nM; IC50 (NCI-H460 cell line): 197 ± 6 nM; Reduction of cellular NAD [8]: less than 90%; IC50 in the presence or absence of 10 µM NA [9]: not significantly different; Shift in IC50 vs parental [10]: less than 100 fold |
| O=C(NCc1ccc(S(=O)(=O)c2cccc(C(F)(F)F)c2)cc1)c1cc2cnccc2s1 [compound 2] |  |  | > 5000 | 15 | > 5000 | 5 | 191 | 21 | 2170 |  |
| O=C(NCc1ccc(S(=O)(=O)c2ccccc2)cc1)c1cnc2[nH]ncc2c1 [compound 4] |  |  | 4160 | 1930 | > 5000 | 80 | > 5000 | 2530 | > 5000 |  |
| O=C(NCc1ccc(S(=O)(=O)c2ccc(N3CCOCC3)nc2)cc1)c1cnc2[nH]ncc2c1 [compound 6] |  |  | > 5000 | 175 | > 5000 | 26 | > 5000 | 148 | > 5000 |  |
| CCN(C)c1ncc(S(=O)(=O)c2ccc(CNC(=O)c3cnc4[nH]ncc4c3)cc2)s1 [compound 7] |  |  | 3380 | 42 | > 5000 | 7 | 2050 | 115 | > 5000 |  |
| N#CN=C(NCCCCCCOc1ccc(Cl)cc1)Nc1ccncc1 [compound 9] | more modest | more modest |  |  |  |  |  |  |  |  |
| O=C(/C=C/c1cccnc1)NCCCCC1CCN(C(=O)c2ccccc2)CC1 [compound 11] | more modest | more modest |  |  |  |  |  |  |  |  |
